Results as given in US10864251B2, “Peptides of syndecan-1 for inhibiting angiogenesis” (Wisconsin Alumni Research Foundation, priority 2006, dated 2020).

How the values were obtained:
Type in all cases: cell-based
[1] = test system: MDA-MB-231 human mammary carcinoma cells; conditions: MDA-MB-231, 0.1-1.0 μM SSTN peptide, 2 hr
Protocol: (§1) FIGS. 5A-5F—Inhibition of MDA-MB-231 human mammary carcinoma cell attachment and spreading on VN by synstatin82-130. MDA-MB-231 human mammary carcinoma cells, which rely on the αvβ3 integrin for attachment and spreading on VN, were plated on 10 μg/ml VN for 2 hr in the absence of peptide (FIG. 5A) or in the presence of 0.1 (FIG. 5B), 0.3 (FIG. 5C) or 1 μM (FIG. 5D) synstatin82-130. The cells were fixed and stained as in FIG. 2.
(§2) FIG. 17—Human SSTN peptides inhibit αvβ3-mediated cell attachment and spreading on vitronectin. MDA-MB-231 human mammary carcinoma cells were allowed to attach and spread on either vitronectin (VN) or fibronectin (FN) during a 2 hr assay in the presence of 0, 0.1, 0.3, 0.5, 1.0 or 30 μM SSTN peptide. […] The two peptides tested are derived either from amino acids 88-121 (hSSTN 88-121) or 89-120 (hSSTN 89-120) of the human Sdc1 sequence. Adhesion to VN, but not FN, is mediated by the αvβ3 integrin on these cells and is disrupted by the human SSTN peptides.
(§3) Cell adhesion and spreading assays were performed with modification to the previous procedures (Lebakken and Rapraeger, 1996. Briefly, human plasma vitronectin or fibronectin at 10-30 μg/ml were applied to nitrocellulose-coated ten well slides (Erie Scientific) and incubated for 1-2 h at 37° C. Slides were blocked with 1.0% heat-denatured bovine serum albumin for a minimum of 30 min at 37° C. Cells were detached from the substratum using 5 mM EDTA in Tris-buffered saline and resuspended in HEPES-buffered culture medium containing 0.1% heat-denatured BSA. Cells were plated at a density of 15,000 cells per well and allowed to attach and spread for 2 h prior to fixation in 4% paraformaldehyde in CMF-PBS. For fluorescence microscopy, fixed cells were permeabilized in 0.2% Triton X-100, labeled with rhodamine-conjugated phalloidin and analyzed using fluorescence microscopy. For testing inhibition by recombinant mScd-1ED and synstatin82-130, cells were pre-incubated 10 min before plating in the presence of the inhibitor. […] LM609 was used as a specific block to αvβ3 and P1F6 was used as a specific blocker of αvβ5.
The inventors have tested the adhesion and spreading of MDA-MB-231 mammary carcinoma cells on VN in the presence or absence of synstatin82-130. These cells rely specifically on the active αvβ3 integrin for this adhesion (Beauvais et al., 2004). Recombinant Sdc1 ectodomain (SLED) has been shown by the inventors previously to block spreading of these cells with an IC50 of about 3-10 μM (Beauvais et al., 2004). […] Thus, synstatin82-130 is a specific and effective inhibitor of αvβ3 integrin activation.

[2] = test system: MDA-MB-231 human mammary carcinoma cells; test: Cell attachment and spreading on fibronectin (control ligand), MDA-MB-231 cells; conditions: MDA-MB-231, 30 μM, 100-fold greater than IC50
Protocol: as §1
as §2, with “peptides. […]” for “peptides.”

[3] = test system: human dermal microvascular endothelial cells (HMEC-1); conditions: HMEC-1, truncated peptides compared to SSTN82-130, FIG. 14
Protocol: FIGS. 6A-6H—Inhibition of B82L fibroblast and HMEC-1 cell attachment and spreading on VN by synstatin82-130. B82L fibroblasts, which rely on the αvβ5 integrin for attachment to VN, and human dermal microvascular endothelial cells, which rely on both the αvβ3 and αvβ5 integrins for attachment to VN, were plated in the absence of peptide (FIGS. 6A, 6E) or in the presence of 0.1 (FIGS. 6B, 6F), 0.3 (FIGS. 6C, 6G) or 1 μM (FIGS. 6D, 6H) synstatin82-130 for 2 hr and processed as described in FIG. 2.
FIGS. 10A-10D—Dependence of HMEC cell attachment and spreading on integrin activation by Sdc1 and its inhibition by SSTN. (FIG. 10A) HMECs were plated for 2 hr either on Sdc1-specific antibody B-B4 to engage Sdc1 or on VN (10 μg/ml coating concentration) to engage the αvβ3 and αvβ5 integrins. Blocking antibodies LM609 (10 μg/ml, specific for αvβ3) and P1F6 (10 μg/ml, specific for αvβ5), SSTN (0.5 μM) or recombinant mouse Sdc1 ectodomain (mS1ED, 5 μM) were added. The ligand mimetic antibody WOW1 was used to detect activated αvβ3 integrin on cells plated on B-B4. (FIG. 10B) HMECs were treated with siRNA oligo specific for human Sdc1 for 48 hr prior to plating on VN. Sdc1 expression was quantified by flow cytometry using human Sdc1-specific mAb B-B4 or a control mouse IgG. (FIG. 10C-10D) The percentage of cell attaching or attaching and spreading was quantified for HMECs, HAEC and MAECs plated on VN for 24 hr in the presence of mS1ED or SSTN, or after siRNA silencing of Sdc1 expression in the presence of mAb LM609 to block αvβ3 integrin, P1F6 to block αvβ5 integrin, or both antibodies.
FIG. 14—Activity of SSTN peptides. A diagram of SSTN82-130 used in our experiments is shown. The gray letters designate amino acids that are identical or highly conserved across species (mouse, human, rat, hamster). Shorter peptides have been tested using HMEC-1 endothelial cells for inhibition of […] mediated cell attachment and spreading in comparison to SSTN82-130.
as §3
Finally, the inventors have examined HMEC-1 cells, which are immortalized human dermal microvascular endothelial cells. Microvascular endothelial cells are regarded as being the main source of endothelial cells that carry out angiogenesis in vivo. The HMEC-1 cells grown in serum-containing culture medium express Sdc1 (as noted earlier) and also express active αvβ3 and αvβ5 integrins. […]

hSSTN 88-121: human SSTN, amino acids 88-121 of the human Sdc1 sequence, SEQ ID NO:28 (ASTSTLPAGEGPKEGEAVVLPEVEPGLTAREQEA)
attachment and spreading on VN [1]: disrupted | attachment and spreading on fibronectin (FN) [2]: lack of activity

hSSTN 89-120: human SSTN, amino acids 89-120 of the human Sdc1 sequence, SEQ ID NO:21 (STSTLPAGEGPKEGEAVVLPEVEPGLTAREQE)
attachment and spreading on VN [1]: disrupted | attachment and spreading on fibronectin (FN) [2]: lack of activity

SSTN88-121: truncated mouse SSTN peptide, amino acids 88-121 (FTSVLPAGEKPEEGEPVLHVEAEPGFTARDKEKE; UniProt P18828 88-121, looked up, fragment)
activity in cell attachment and spreading assays on VN [3]: active
